# From patent publication US12286453B2, “Methods of sequencing using nucleotides with 3′ acetal blocking group” (ILLUMINA CAMBRIDGE LIMITED, priority 2020, dated 2025)
# Experiment: Solution cleavage efficiency of palladium reagent formulations (HPLC kinetics)
# Type: physicochemical
# Conditions: 1 mM Pd species, 0.1 mM substrate, RT; 3 or 3.5 equivalents of THP vs 10 equivalents for [(Allyl)PdCl]2
# Procedure: The cleavage efficiency was determined by measuring the relative rate of cleavage of a 3′-AOM-nucleotide substrate. Briefly, to a 0.1 mM solution of 3′-AOM-nucleotide substrate in 100 mM buffer was added a stock solution of a palladium reagent to a final concentration of 1 mM in Pd species. The solution was incubated at RT and the reaction kinetic was monitored by taking aliquots from the reaction at set time points, quenching them with a 1:1 solution of EDTA/H2O2 (0.1:0.1 M) and analyzing them by HPLC for the formation of 3′-OH nucleotide and the disappearance of the 3′-AOM nucleotide substrate.
structure (smiles),measurement,value
[Cl-].[Cl-].[Cl][Pd][Cl].[Na+].[Na+] [Na2PdCl4],cleavage efficiency (relative rate of cleavage),comparable to that of [(Allyl)PdCl]2
